Experimental data published in ChEMBL document CHEMBL5233281, “Design, synthesis and biological evaluation of novel 1,3,4,9-tetrahydropyrano[3,4-b]indoles as potential treatment of triple negative breast cancer by suppressing PI3K/AKT/mTOR pathway” (Bioorg Med Chem, 2021).
Active and inactive are the calls of the source. No cut-off for these calls is given here.

How the values were obtained:
[1] = Inhibition of PI3K/Akt/mTOR signaling in human MDA-MB-231 cells assessed as reduction in mTOR phosphorylation at Ser2481 residue at 2 uM incubated for 72 hrs by western blot analysis; format: cell-based
MDA-MB-231 [2] = assay: Induction of cell cycle arrest in human MDA-MB-231 cells assessed as accumulation of cells at G0/G1 phase at 1 uM incubated for 48 hrs by PI staining based flow cytometry (reference value: 48.33%); format: functional
MDA-MB-231 [3] = assay: Induction of apoptosis in human MDA-MB-231 cells assessed as increase in apoptotic cells at 2 uM incubated for 72 hrs in presence of IGF-1 by AnnexinV-FITC/PI staining based flow cytometry; format: functional
MDA-MB-231 [4] = assay: Increase in intracellular Ca2+ level in human MDA-MB-231 cells at 1 to 4 uM incubated for 48 hrs by Fluo-4AM dye based flow cytometry; format: functional, cell-based; settings: dose 1-4 µM
MDA-MB-231 [5] = assay: Induction of cell cycle arrest in human MDA-MB-231 cells assessed as downregulation of CDK4 protein expression at 1 to 4 uM incubated for 48 hrs by western blot analysis; format: functional, cell-based; settings: dose 1-4 µM
MDA-MB-231 [6] = assay: Induction of cell cycle arrest in human MDA-MB-231 cells assessed as upregulation of p21 protein expression at 1 to 4 uM incubated for 48 hrs by western blot analysis; format: functional, cell-based; settings: dose 1-4 µM
MDA-MB-231 [7] = assay: Downregulation of mTOR protein expression in human MDA-MB-231 cells at 2 uM incubated for 72 hrs in presence of IGF-1 by western blot analysis; format: functional, cell-based
MDA-MB-231 [8] = assay: Induction of apoptosis in human MDA-MB-231 cells assessed as increase in apoptotic cells at 4 uM incubated for 48 hrs by AnnexinV-FITC/PI staining based flow cytometry (reference value: 5.24%); format: functional
A549 = assay: Antiproliferative activity against human A549 cells assessed as inhibition of cell growth incubated for 72 hrs by CCK8 assay; format: functional, cell-based; settings: A549, 72 h
BGC-823 = assay: Antiproliferative activity against human BGC-823 cells assessed as inhibition of cell growth incubated for 72 hrs by CCK8 assay; format: functional, cell-based; settings: BGC-823, 72 h
PC-3 = assay: Antiproliferative activity against human PC-3 cells assessed as inhibition of cell growth incubated for 72 hrs by CCK8 assay; format: functional, cell-based; settings: PC-3, 72 h
[9] = Inhibition of PI3K/Akt/mTOR signaling in human MDA-MB-231 cells assessed as reduction in Akt phosphorylation at Ser473 residue at 2 uM incubated for 72 hrs in presence of IGF-1 by western blot analysis; format: cell-based
MDA-MB-231 [10] = assay: Antiproliferative activity against human MDA-MB-231 cells assessed as inhibition of cell growth at 1 to 4 uM by CCK8 assay; format: functional, cell-based; settings: dose 1-4 µM, time 24-96 hrs, TDE = time-dependent effect
MDA-MB-231 [11] = assay: Induction of apoptosis in human MDA-MB-231 cells assessed as increase in apoptotic cells at 2 uM incubated for 72 hrs by AnnexinV-FITC/PI staining based flow cytometry (reference value: 5.24%); format: functional
MDA-MB-231 [12] = assay: Downregulation of Akt protein expression in human MDA-MB-231 cells incubated for 48 hrs by western blot analysis; format: functional, cell-based; settings: dose 1-4 µM
MDA-MB-231 [13] = assay: Downregulation of PI3K protein expression in human MDA-MB-231 cells incubated for 48 hrs by western blot analysis; format: functional, cell-based; settings: dose 1-4 µM
MDA-MB-231 [14] = assay: Antiproliferative activity against human MDA-MB-231 cells assessed as inhibition of cell growth measured after 24 to 96 hrs by CCK8 assay; format: functional, cell-based; settings: dose 1-4 µM, time 24-96 hrs
MDA-MB-231 [15] = assay: Induction of apoptosis in human MDA-MB-231 cells assessed as increase in apoptotic cells at 2 uM incubated for 48 hrs by AnnexinV-FITC/PI staining based flow cytometry (reference value: 5.24%); format: functional
MDA-MB-231 [16] = assay: Induction of reactive oxygen species generation in human MDA-MB-231 cells at 2 uM incubated for 24 hrs by DCFH-DA staining based flow cytometry relative to control; format: functional
MDA-MB-231 [17] = assay: Induction of apoptosis in human MDA-MB-231 cells assessed as increase in ratio of Bax to Bcl-2 protein expression measured after 48 hrs by western blot analysis; format: functional, cell-based; settings: dose 1-4 µM
MDA-MB-231 [18] = assay: Induction of apoptosis in human MDA-MB-231 cells assessed as increase in apoptotic cells at 1 uM incubated for 48 hrs by AnnexinV-FITC/PI staining based flow cytometry (reference value: 5.24%); format: functional
[19] = Inhibition of PI3K/Akt/mTOR signaling in human MDA-MB-231 cells assessed as reduction in Akt phosphorylation at Thr308 residue incubated for 48 hrs by western blot analysis; format: cell-based; settings: dose 1-4 µM
MDA-MB-231 [20] = assay: Induction of cell cycle arrest in human MDA-MB-231 cells assessed as accumulation of cells at G0/G1 phase at 4 uM incubated for 48 hrs by PI staining based flow cytometry (reference value: 48.33%); format: functional
MDA-MB-231 [21] = assay: Induction of cell cycle arrest in human MDA-MB-231 cells assessed as downregulation of Cyclin D1 protein expression at 1 to 4 uM incubated for 48 hrs by western blot analysis; format: functional, cell-based; settings: dose 1-4 µM
MDA-MB-231 [22] = assay: Induction of apoptosis in human MDA-MB-231 cells assessed as increase in cleaved caspase-3 protein expression at 1 to 4 uM incubated for 48 hrs by western blot analysis; format: functional, cell-based; settings: dose 1-4 µM
MDA-MB-231 [23] = assay: Induction of reactive oxygen species generation in human MDA-MB-231 cells at 1 uM incubated for 24 hrs by DCFH-DA staining based flow cytometry; format: functional, cell-based
MDA-MB-231 [24] = assay: Induction of reactive oxygen species generation in human MDA-MB-231 cells at 4 uM incubated for 24 hrs by DCFH-DA staining based flow cytometry; format: functional, cell-based
MDA-MB-231 [25] = assay: Induction of apoptosis in human MDA-MB-231 cells assessed as decrease in Bcl-2 protein expression measured after 48 hrs by western blot analysis; format: functional, cell-based; settings: dose 1-4 µM
[26] = Selectivity index, ratio of IC50 for antiproliferative activity against human MCF-10A cells to IC50 for antiproliferative activity against human MDA-MB-231 cells; format: toxicity, cell-based; settings: MCF-10A cells and MDA-MB-231 cells, read-out: Ratio IC50
MDA-MB-231 [27] = assay: Downregulation of PI3K protein expression in human MDA-MB-231 cells at 2 uM incubated for 72 hrs in presence of IGF-1 by western blot analysis; format: functional, cell-based
MDA-MB-231 [28] = assay: Induction of mitochondrial membrane potential depolarization in human MDA-MB-231 cells assessed as decrease in ratio of red to green fluorescence intensity at 1 to 4 uM incubated for 24 hrs by JC-1 staining based flow cytometry; format: functional, cell-based; settings: dose 1-4 µM
MDA-MB-231 [29] = assay: Depletion of intracellular GSH content in human MDA-MB-231 cells at 2 uM incubated for 48 hrs relative to control; format: functional
[30] = Antiproliferative activity against human MCF-10A cells assessed as inhibition of cell growth incubated for 72 hrs by CCK8 assay; format: toxicity, cell-based
MDA-MB-231 [31] = assay: Induction of apoptosis in human MDA-MB-231 cells assessed as increase in cleaved caspase-9 protein expression at 1 to 4 uM incubated for 48 hrs by western blot analysis; format: functional, cell-based; settings: dose 1-4 µM
MDA-MB-231 [32] = assay: Induction of apoptosis in human MDA-MB-231 cells assessed as increase in apoptotic cells at 2 uM incubated for 24 hrs by AnnexinV-FITC/PI staining based flow cytometry (reference value: 5.24%); format: functional

Fc1cc(F)cc(C2OCCc3c2[nH]c2ccccc32)c1 (stereo not given)
inhibition [1]: inactive
Activity (MDA-MB-231 [2]): 54.33%
Activity (MDA-MB-231 [3]): 18.5%
Activity (MDA-MB-231 [4]): Active
Activity (MDA-MB-231 [5]): Active
Activity (MDA-MB-231 [6]): Active
inhibition (MDA-MB-231 [7]): inactive
Activity (MDA-MB-231 [8]): 37.86%
IC50 (A549): 14.8 µM
IC50 (BGC-823): 9.11 µM
IC50 (PC-3): 9.04 µM
inhibition [9]: inactive
Activity (MDA-MB-231 [10]): Tde
Activity (MDA-MB-231 [11]): 31.34%
inhibition (MDA-MB-231 [12]): Dose-Dependent Effect
inhibition (MDA-MB-231 [13]): Dose-Dependent Effect
Activity (MDA-MB-231 [14]): Dose-Dependent Effect
Activity (MDA-MB-231 [15]): 22.17%
fold change (FC) (MDA-MB-231 [16]): 1.73
Activity (MDA-MB-231 [17]): Dose-Dependent Effect
Activity (MDA-MB-231 [18]): 16.77%
inhibition [19]: Dose-Dependent Effect
Activity (MDA-MB-231 [20]): 66.67%
Activity (MDA-MB-231 [21]): Active
Activity (MDA-MB-231 [22]): Active
Activity (MDA-MB-231 [23]): inactive
Activity (MDA-MB-231 [24]): Active
Activity (MDA-MB-231 [25]): Dose-Dependent Effect
selectivity ratio [26]: 10.8
inhibition (MDA-MB-231 [27]): inactive
Activity (MDA-MB-231 [28]): Active
fold change (FC) (MDA-MB-231 [29]): 0.63
IC50 at 72 h [30]: 24.6 µM
Activity (MDA-MB-231 [31]): Active
Activity (MDA-MB-231 [32]): 13.14%
